# Assay results published in paper PMC6270149, “Bioactive Flavone-C-Glycosides of the African Medicinal Plant Biophytum umbraculum” (Molecules, 2013).
# Where two headings read alike, the source gives them in different places.
# Key:
# DPPH radical scavenging = conditions: triplicates, mean ± SD; for IC50: isolated compounds dissolved in DMSO
# Procedure: Pure substances and crude extracts (Soxhlet) were dissolved in DMSO, and the assay was carried out as reported previously. Quercetin (Sigma-Aldrich) was used as positive control.
# xanthine oxidase (XO) = xanthine oxidase (XO) (Bos taurus, UniProt P80457); experiment: Inhibition of xanthine oxidase (XO); format: biochemical; conditions: isolated compounds dissolved in DMSO; triplicates, mean ± SD
# xanthine oxidase (XO), sequence (P80457 whole entry): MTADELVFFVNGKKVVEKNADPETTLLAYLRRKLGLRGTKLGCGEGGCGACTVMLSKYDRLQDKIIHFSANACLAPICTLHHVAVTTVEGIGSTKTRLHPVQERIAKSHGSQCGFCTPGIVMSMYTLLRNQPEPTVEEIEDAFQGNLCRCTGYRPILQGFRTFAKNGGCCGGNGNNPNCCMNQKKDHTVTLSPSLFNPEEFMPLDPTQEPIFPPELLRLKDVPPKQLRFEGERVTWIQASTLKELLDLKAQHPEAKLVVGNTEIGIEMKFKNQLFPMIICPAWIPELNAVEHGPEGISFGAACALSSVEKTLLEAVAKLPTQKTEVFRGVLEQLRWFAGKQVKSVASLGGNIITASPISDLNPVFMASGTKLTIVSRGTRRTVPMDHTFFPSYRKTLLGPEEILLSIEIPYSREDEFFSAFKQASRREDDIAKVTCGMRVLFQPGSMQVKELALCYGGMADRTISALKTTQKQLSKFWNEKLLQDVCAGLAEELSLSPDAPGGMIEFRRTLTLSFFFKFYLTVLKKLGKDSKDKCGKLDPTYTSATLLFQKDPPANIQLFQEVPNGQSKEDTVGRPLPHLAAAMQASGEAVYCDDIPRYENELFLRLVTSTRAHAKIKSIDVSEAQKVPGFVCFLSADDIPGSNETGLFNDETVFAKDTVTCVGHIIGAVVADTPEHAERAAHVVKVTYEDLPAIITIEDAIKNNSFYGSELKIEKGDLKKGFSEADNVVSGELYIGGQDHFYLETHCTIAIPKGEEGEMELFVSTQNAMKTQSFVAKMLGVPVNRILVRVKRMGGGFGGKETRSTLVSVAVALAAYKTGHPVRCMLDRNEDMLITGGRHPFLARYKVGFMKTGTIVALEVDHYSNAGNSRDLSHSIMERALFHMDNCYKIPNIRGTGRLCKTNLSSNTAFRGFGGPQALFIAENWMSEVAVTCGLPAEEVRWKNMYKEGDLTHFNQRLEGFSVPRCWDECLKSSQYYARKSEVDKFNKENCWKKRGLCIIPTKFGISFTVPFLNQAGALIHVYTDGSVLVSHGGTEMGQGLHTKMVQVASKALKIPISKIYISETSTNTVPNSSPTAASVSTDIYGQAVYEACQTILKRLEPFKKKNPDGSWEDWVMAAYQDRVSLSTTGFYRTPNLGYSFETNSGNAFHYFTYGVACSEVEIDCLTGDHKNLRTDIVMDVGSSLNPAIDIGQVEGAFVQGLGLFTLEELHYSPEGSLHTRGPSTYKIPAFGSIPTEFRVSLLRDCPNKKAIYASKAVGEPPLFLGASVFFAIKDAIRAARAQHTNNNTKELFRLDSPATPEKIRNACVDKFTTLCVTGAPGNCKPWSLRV
# Procedure: (§1) Pure substances and crude extracts (Soxhlet) were dissolved in DMSO, and the assay was carried out as reported previously.
# 15-lipoxygenase (15-LO) = target: T1, 15-lipoxygenase (15-LO) (Glycine max, UniProt P08170); experiment: Inhibition of 15-lipoxygenase (15-LO); format: biochemical; conditions: isolated compounds dissolved in DMSO, triplicates, mean ± SD
# T1 sequence (P08170 1-839): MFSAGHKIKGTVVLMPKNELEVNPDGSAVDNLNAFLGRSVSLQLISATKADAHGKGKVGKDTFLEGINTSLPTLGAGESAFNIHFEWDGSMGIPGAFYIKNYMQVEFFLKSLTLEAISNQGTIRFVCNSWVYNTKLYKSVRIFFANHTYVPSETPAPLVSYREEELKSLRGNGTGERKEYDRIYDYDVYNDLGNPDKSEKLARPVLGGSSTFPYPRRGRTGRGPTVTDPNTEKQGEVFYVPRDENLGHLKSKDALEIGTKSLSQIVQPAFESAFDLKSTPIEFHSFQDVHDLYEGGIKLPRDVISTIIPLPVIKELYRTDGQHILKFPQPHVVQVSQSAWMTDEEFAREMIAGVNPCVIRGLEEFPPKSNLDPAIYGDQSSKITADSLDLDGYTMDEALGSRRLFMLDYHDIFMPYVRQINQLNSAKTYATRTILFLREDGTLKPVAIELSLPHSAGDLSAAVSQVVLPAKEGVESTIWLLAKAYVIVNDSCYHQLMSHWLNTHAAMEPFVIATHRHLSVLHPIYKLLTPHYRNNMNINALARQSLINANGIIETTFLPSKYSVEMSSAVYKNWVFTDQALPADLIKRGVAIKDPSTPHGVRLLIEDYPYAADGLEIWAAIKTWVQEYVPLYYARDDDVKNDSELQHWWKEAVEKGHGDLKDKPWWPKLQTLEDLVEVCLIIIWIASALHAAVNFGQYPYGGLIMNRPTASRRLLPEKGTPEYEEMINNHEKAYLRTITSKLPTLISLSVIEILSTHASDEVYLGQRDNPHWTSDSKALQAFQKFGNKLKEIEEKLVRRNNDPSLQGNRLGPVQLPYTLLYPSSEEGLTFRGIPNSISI
# Procedure: as §1
# [1] = read-out: 15-lipoxygenase (15-LO) inhibition IC50 ± SD
SMILES,IC50 (DPPH radical scavenging) [µM],IC50 (xanthine oxidase (XO)) [µM],IC50 (15-lipoxygenase (15-LO); [1]) [µM],DPPH radical scavenging IC50 ± SD (DPPH radical scavenging; extracts (Soxhlet) dissolved in DMSO) [µg/mL],IC50 (15-lipoxygenase (15-LO); 15-lipoxygenase (15-LO) inhibition IC50 ± SD) [µM]
"O=c1cc(-c2ccc(O)cc2)oc2cc(O)c([C@@H]3O[C@H](CO)[C@@H](O)[C@H](O)[C@H]3O)c(O)c12 [Isovitexin (2), isovitexin]",96 ± 3.6,> 167,107 ± 2.1,,
"O=c1c(O)c(-c2ccc(O)c(O)c2)oc2cc(O)cc(O)c12 [Quercetin, reference compound]",13.7 ± 1.3,,,4.4 ± 0.4,
"O=c1cc(-c2ccc(O)c(O)c2)oc2cc(O)c([C@@H]3O[C@H](CO)[C@@H](O)[C@H](O)[C@H]3O)c(O)c12 [Isoorientin (3), isoorientin]",18.1 ± 1.1,117 ± 13.5,,,86.4 ± 0.5
"C[C@@H]1O[C@@H](O[C@H]2C(=O)[C@@H](O)[C@H](C)O[C@@H]2c2c(O)cc3oc(-c4ccc(O)cc4)cc(=O)c3c2O)[C@H](O)[C@H](O)[C@H]1O [Cassiaoccidentalin A (1), cassiaoccidentalin A]",> 167,150 ± 7.4,99.9 ± 2.5,,
